Measurements as given in US10850134B2, “Method and kit for home controlled ovarian stimulation for in vitro fertilization” (priority 2019, dated 2020).
Several values for one entry are separate records, joined by “and”; a condition that tells them apart may be missing. Equal entries are not always repeated.

Experiments:
[1] = tested on: Luteinizing hormone (LH) blood level; test: LH blood level in patients on GnRH antagonist protocol with ganirelix acetate injections (Example 1); assay type: in vivo, female patients
Description: Five female patients were treated with a GnRH antagonist protocol requiring injections of medications.
One patient, patient no. 1, was injected with 150 Units of FSH on days 3 to 12; half a syringe of 150 mcg/0.5 mL of ganirelix acetate on days 11 and 12; and 50 mg of clomiphene citrate on days 3 to 12; and 2.5 mg of letrozole on days 3 to 7. Luteinizing hormone (LH) blood level was 4.3 mIU/mL on day 10 and dropped to 2 mIU/mL on day 12.
A second patient, patient no. 2, was injected with 75 Units of FSH on days 4 to 12 and 150 Units on day 13; half a syringe of 150 mcg/0.5 mL of ganirelix acetate on days 11 to 13; 50 mg of clomiphene citrate on days 10 to 12, and 2.5 mg of letrozole on days 3 to 7. Luteinizing hormone (LH) blood level was 12.0 mIU/mL on day 11 and dropped to 6.3 mIU/mL on day 13.
Three patients, numbered 3 to 5, were injected with 75, 150 and 225 Units of FSH, respectively, on days 4 to 12 and one third a syringe of 150 mcg/0.5 mL of ganirelix acetate on days 11 to 13. Patient no. 3 received 50 mg of clomiphene citrate on days 4 to 12, and 2.5 mg of letrozole on days 4 to 8. Patient no. 4 received 100 mg of clomiphene citrate and 2.5 mg of letrozole on days 4 to 8, and 50 mg of clomiphene citrate on days 9 to 11. Patient no. 5 received no clomiphene citrate or letrozole. Luteinizing hormone (LH) blood level was 12.0, 18.0 and 14.6 mIU/mL, respectively, on day 10 and dropped to 4.9, 16.0 and 14.1 mIU/mL, respectively, on day 12.
(§1) Table 2 below provides a comparison of the efficacy of conventional Ganirelex/Cetrotide injectables treatment for IVF in the five representative patients from Example 1 with the home controlled ovarian hyperstimulation method described herein in the five representative patients from Example 2.

[2] = tested on: Luteinizing hormone (LH) blood level; test: LH blood level in patients on home controlled ovarian hyperstimulation method with vaginal elagolix (Example 2); assay type: in vivo, female patients; conditions: for Luteinizing hormone (LH) blood level: 50 mg elagolix vaginal suppository days 9 and 11
Description: Five female patients were treated with the controlled ovarian hyperstimulation method described herein using the elagolix pill (vaginal route) instead of the conventional Ganirelex/Cetrotide injectables. On day 3 of the patient's menstrual cycle, the patient orally took 100 mg (two 50 mg oral tablets) of clomiphene citrate and 5 mg (two 2.5 mg oral tablets) of letrozole. The patient then took the same oral dosages of clomiphene citrate and letrozole daily on each of days 4-7 of the patient's menstrual cycle. On day 8 of the patient's menstrual cycle, the patient orally took only 100 mg (two 50 mg oral tablets) of clomiphene citrate, and stopped the letrozole. On day 9 of the menstrual cycle, the patient orally took 100 mg (two 50 mg oral tablets) of clomiphene citrate and inserted vaginally a 50 mg tablet of elagolix as a vaginal suppository. On day 10 of the menstrual cycle, the patient orally took only 100 mg (two 50 mg oral tablets) of clomiphene citrate. On day 11 of the menstrual cycle, the patient orally took 100 mg (two 50 mg oral tablets) of clomiphene citrate and inserted vaginally a 50 mg tablet of elagolix as a vaginal suppository. Also, on day 11, the patient took a home ovulation test in the morning (9:00 am) and in the evening (9:00 pm). For the patients whose ovulation tests were not positive, then on days 12 and 13, the patient took 2 doses of leuprorelin as a nasal spray (1:40 dilution in saline) as follows. On day 12, after taking a home ovulation test at 9:00 am, 2 puffs (sprays) of the nasal spray were self-administered by the patient per nostril. After 12 hours of waiting, at 9:00 pm the patient took a home urine ovulation test and then self-administered 2 more puffs (sprays) of the nasal spray per nostril. On day 13, the patient repeated the procedure of day 12. Luteinizing hormone (LH) blood level was 7.0 mIU/mL on day 11 and dropped to 1.0 mIU/mL on day 13.
as §1

[3] = Example 1, conventional injectables, individual patients 1-5, blood
[4] = Example 2, vaginal elagolix suppository 50 mg days 9 and 11, individual patients 1-5, blood

Molecule: ganirelix acetate
- % Drop in blood LH hormone level ([1]; Example 1, conventional injectables, individual patients 1-5): 53.5% and 47.5% and 59.2% and 11.1% and 3.4%
- LH blood hormone level (mIU/mL) AFTER medication intake [1, 3]: 2.0 mIU/mL and 6.3 mIU/mL and 4.9 mIU/mL and 16.0 mIU/mL and 14.1 mIU/mL
- LH blood hormone level (mIU/mL) BEFORE medication intake [1, 3]: 4.3 mIU/mL and 12.0 mIU/mL (2×) and 18.0 mIU/mL and 14.6 mIU/mL
- Luteinizing hormone (LH) blood level ([1]; patient no. 1, day 10, half a syringe ganirelix acetate days 11 and 12, 150 Units FSH): 4.3 mIU/mL
- drop in LH blood hormone levels ([1]; patient no. 1, day 10 to day 12): 53.5%
- Luteinizing hormone (LH) blood level ([1]; patient no. 1, day 12, half a syringe ganirelix acetate days 11 and 12, 150 Units FSH): 2 mIU/mL
- Luteinizing hormone (LH) blood level ([1]; patient no. 2, day 11, half a syringe ganirelix acetate days 11 to 13, 75 Units FSH): 12.0 mIU/mL
- drop in LH blood hormone levels ([1]; patient no. 2, day 11 to day 13): 47.5%
- Luteinizing hormone (LH) blood level ([1]; patient no. 2, day 13, half a syringe ganirelix acetate days 11 to 13, 75 Units FSH): 6.3 mIU/mL
- Luteinizing hormone (LH) blood level ([1]; patient no. 3, day 10, one third a syringe ganirelix acetate days 11 to 13, 75 Units FSH): 12.0 mIU/mL
- drop in LH blood hormone levels ([1]; patient no. 3, day 10 to day 12): 59.25
- Luteinizing hormone (LH) blood level ([1]; patient no. 3, day 12, one third a syringe ganirelix acetate days 11 to 13, 75 Units FSH): 4.9 mIU/mL
- Luteinizing hormone (LH) blood level ([1]; patient no. 4, day 10, one third a syringe ganirelix acetate days 11 to 13, 150 Units FSH): 18.0 mIU/mL
- drop in LH blood hormone levels ([1]; patient no. 4, day 10 to day 12): 11.1%
- Luteinizing hormone (LH) blood level ([1]; patient no. 4, day 12, one third a syringe ganirelix acetate days 11 to 13, 150 Units FSH): 16.0 mIU/mL
- Luteinizing hormone (LH) blood level ([1]; patient no. 5, day 10, one third a syringe ganirelix acetate days 11 to 13, 225 Units FSH, no clomiphene citrate or letrozole): 14.6 mIU/mL
- drop in LH blood hormone levels ([1]; patient no. 5, day 10 to day 12): 3.4%
- Luteinizing hormone (LH) blood level ([1]; patient no. 5, day 12, one third a syringe ganirelix acetate days 11 to 13, 225 Units FSH, no clomiphene citrate or letrozole): 14.1 mIU/mL

Molecule: COc1cccc(-c2c(C)n(Cc3c(F)cccc3C(F)(F)F)c(=O)n(C[C@H](NCCCC(=O)O)c3ccccc3)c2=O)c1F [Vaginal elagolix suppository, elagolix]
- % Drop in blood LH hormone level ([2]; Example 2, vaginal elagolix suppository 50 mg days 9 and 11, individual patients 1-5): 85.7% and 65.9% and 68.6% and 79.3% and 88.6%
- LH blood hormone level (mIU/mL) AFTER medication intake [2, 4]: 1.0 mIU/mL and 5.7 mIU/mL and 3.2 mIU/mL and 1.7 mIU/mL and 0.8 mIU/mL
- LH blood hormone level (mIU/mL) BEFORE medication intake [2, 4]: 7.0 mIU/mL and 16.7 mIU/mL and 10.2 mIU/mL and 8.2 mIU/mL and 7 mIU/mL
- Luteinizing hormone (LH) blood level ([2]; day 11): 7.0 mIU/mL
- drop in LH blood hormone levels ([2]; day 11 to day 13): 85.7%
- Luteinizing hormone (LH) blood level ([2]; day 13): 1.0 mIU/mL
